{
  "source": "patent US4507487A",
  "about": "“Chemical compounds” (Bristol-Myers Company, priority 1983, dated 1985)",
  "key": {"Ps. aeruginosa": {"system": "Ps. aeruginosa", "assay": "MIC, two-fold serial agar dilution in Mueller-Hinton agar, group (G-)-III", "type": "cell-based", "settings": "Pseudomonas aeruginosa, Ps. aeruginosa (6 strains), read-out: Geometric Mean of MIC", "method": "(§1) In the primary evaluation of the compounds of this invention, the Minimum Inhibitory Concentrations (MIC's) of the compounds were determined by the two-fold serial agar dilution method in Mueller-Hinton agar against 32 strains of test organisms in six groups."}, "[1]": {"system": "Penicillinsensitive S. aureus", "assay": "MIC, two-fold serial agar dilution in Mueller-Hinton agar, group (G+)-Ia", "type": "cell-based", "settings": "Staphylococcus aureus; (G+)-Ia, penicillin-sensitive S. aureus (5 strains); read-out: Geometric Mean of MIC", "method": "as §1"}, "Pr. mirabilis A9554": {"system": "Pr. mirabilis A9554", "assay": "MIC against specific test organism", "type": "cell-based", "settings": "Proteus mirabilis, read-out: Minimum Inhibitory Concentration", "method": "as §1\n(§2) The test method was as described for Table 1."}, "M. morganii A9553": {"system": "M. morganii A9553", "assay": "MIC against specific test organism", "type": "cell-based", "settings": "Morganella morganii, read-out: Minimum Inhibitory Concentration", "method": "as §1, §2"}, "Ps. aeruginosa A20717": {"system": "Ps. aeruginosa A20717", "assay": "MIC against specific test organism", "type": "cell-based", "settings": "Pseudomonas aeruginosa, read-out: Minimum Inhibitory Concentration", "method": "as §1, §2"}, "E. coli A15164": {"system": "E. coli A15164", "assay": "MIC against specific test organism", "type": "cell-based", "settings": "Escherichia coli; E. coli A15164, cephalothin-resistant strain; read-out: Minimum Inhibitory Concentration", "method": "as §1, §2"}, "Ser. marcescens A20019": {"system": "Ser. marcescens A20019", "assay": "MIC against specific test organism", "type": "cell-based", "settings": "Serratia marcescens, read-out: Minimum Inhibitory Concentration", "method": "as §1, §2"}, "K. pneumoniae A9867": {"system": "K. pneumoniae A9867", "assay": "MIC against specific test organism", "type": "cell-based", "settings": "Klebsiella pneumoniae, A9867, read-out: Minimum Inhibitory Concentration", "method": "as §1, §2"}, "S. aureus BX-1633-2": {"system": "S. aureus BX-1633-2", "assay": "MIC against specific test organism", "type": "cell-based", "settings": "Staphylococcus aureus, BX16332; S. aureus BX-1633-2, penicillin-resistant strain; read-out: Minimum Inhibitory Concentration", "method": "as §1, §2"}, "K. pneumoniae D11": {"system": "K. pneumoniae D11", "assay": "MIC against specific test organism", "type": "cell-based", "settings": "Klebsiella pneumoniae, read-out: Minimum Inhibitory Concentration", "method": "as §1, §2"}, "Ps. aeruginosa A15150": {"system": "Ps. aeruginosa A15150", "assay": "MIC against specific test organism", "type": "cell-based", "settings": "Pseudomonas aeruginosa, read-out: Minimum Inhibitory Concentration", "method": "as §1, §2"}, "E. coli Juhl": {"system": "E. coli Juhl", "assay": "MIC against specific test organism", "type": "cell-based", "settings": "Escherichia coli, read-out: Minimum Inhibitory Concentration", "method": "as §1, §2"}, "S. aureus Smith": {"system": "S. aureus Smith", "assay": "MIC against specific test organism", "type": "cell-based", "settings": "Staphylococcus aureus, read-out: Minimum Inhibitory Concentration", "method": "as §1, §2"}, "Ps. aeruginosa A9843": {"system": "Ps. aeruginosa A9843", "assay": "MIC against specific test organism", "type": "cell-based", "settings": "Pseudomonas aeruginosa, read-out: Minimum Inhibitory Concentration", "method": "as §1, §2"}, "Ent. cloacae A9656": {"system": "Ent. cloacae A9656", "assay": "MIC against specific test organism", "type": "cell-based", "settings": "Enterobacter cloacae, read-out: Minimum Inhibitory Concentration", "method": "as §1, §2"}, "[2]": {"system": "Penicillinresistant S. aureus", "assay": "MIC, two-fold serial agar dilution in Mueller-Hinton agar, group (G+)-Ib", "type": "cell-based", "settings": "Staphylococcus aureus, read-out: Geometric Mean of MIC", "method": "as §1\n(G+)Ib: Penicillinresistant S. aureus (5 strains)"}, "[3]": {"system": "M. morganii, Ent. cloacae and Ser. marcescens", "assay": "MIC, two-fold serial agar dilution in Mueller-Hinton agar, group (G-)-II", "type": "cell-based", "settings": "(G-)-II, M. morganii (1), Ent. cloacae (2), Ser. marcescens (2 strains); read-out: Geometric Mean of MIC", "method": "as §1\n(G-)II: M. morganii (1 strain), Ent. cloacae (2 strains) and Ser."}, "[4]": {"system": "Cephalothinsensitive E. coli, Kl. pneumoniae and Pr. mirabilis", "assay": "MIC, two-fold serial agar dilution in Mueller-Hinton agar, group (G-)-Ia", "type": "cell-based", "settings": "(G-)-Ia, cephalothin-sensitive E. coli (2), Kl. pneumoniae (1), Pr. mirabilis (2 strains); read-out: Geometric Mean of MIC", "method": "as §1\n(G-)Ia: Cephalothinsensitive E. coli (2 strains), Kl. pneumoniae (1\nstrain) and Pr. mirabilis (2 strains)"}, "[5]": {"system": "Cephalothinresistant E. coli and Kl. pneumoniae", "assay": "MIC, two-fold serial agar dilution in Mueller-Hinton agar, group (G-)-Ib", "type": "cell-based", "settings": "read-out: Geometric Mean of MIC", "method": "as §1\n(G-)Ib: Cephalothinresistant E. coli (3 strains) and Kl. pneumoniae (3"}, "[6]": {"assay": "Mouse blood levels after single intramuscular injection", "type": "in vivo, mice", "settings": "for concentration at 10 min / concentration at 20 min / concentration at 0.5 h / concentration at 40 min / concentration at 50 min / concentration at 1 h / concentration at 1.5 h: read-out: Mouse Blood Level; for concentration at 0.5 h: 30 minutes; for concentration at 1 h: 60 minutes; for concentration at 1.5 h: 90 minutes", "method": "The absorption of some of the preferred compounds were determined in mice following a single intramuscular injection of the test compound (dissolved in 0.1M phosphate buffer; pH 7) at a dosage of 10, 20 or 40 mg/kg. Blood samples were collected from the orbital sinuses into heparinized capillary tubes and assayed in Nutrient Agar (pH 6.6) using E. coli Ess-22-31 as the test organism. The blood levels at various time intervals, the half-life values (t1/2) and the areas under the curve (AUC) are shown in Table 3."}},
  "note": "Read-outs that look alike come from different tables or passages of the source.",
  "data": [
    {"smiles": "CSc1scc[n+]1CC1=C(C(=O)[O-])N2C(=O)C(NC(=O)/C(=N\\OC(C)(C)C(=O)O)c3csc(N)n3)[C@H]2SC1", "note": "(stereo partly shown) [Example 1, 7-[(Z)-2-(2-Aminothiazol-4-yl)-2-(2-carboxyprop-2-oxyimino)acetamido]-3-(2-methylthiothiazolio)methyl-3-cephem-4-carboxylate]", "values": [
      {"measurement": "MIC", "setting": "Ps. aeruginosa", "value": 1.4, "unit": "µg/mL"},
      {"measurement": "MIC", "setting": "[1]", "value": 1.2, "unit": "µg/mL"},
      {"measurement": "MIC", "setting": "Pr. mirabilis A9554", "value": 0.05, "unit": "µg/mL"},
      {"measurement": "MIC", "setting": "M. morganii A9553", "value": 0.1, "unit": "µg/mL"},
      {"measurement": "MIC", "setting": "Ps. aeruginosa A20717", "value": 3.1, "unit": "µg/mL"},
      {"measurement": "MIC", "setting": "E. coli A15164", "value": 0.8, "unit": "µg/mL"},
      {"measurement": "MIC", "setting": "Ser. marcescens A20019", "value": 0.1, "unit": "µg/mL"},
      {"measurement": "MIC", "setting": "K. pneumoniae A9867", "value": 1.6, "unit": "µg/mL"},
      {"measurement": "MIC", "setting": "S. aureus BX-1633-2", "value": 3.1, "unit": "µg/mL"},
      {"measurement": "MIC", "setting": "K. pneumoniae D11", "value": 0.1, "unit": "µg/mL"},
      {"measurement": "MIC", "setting": "Ps. aeruginosa A15150", "value": 0.8, "unit": "µg/mL"},
      {"measurement": "MIC", "setting": "E. coli Juhl", "value": 0.1, "unit": "µg/mL"},
      {"measurement": "MIC", "setting": "S. aureus Smith", "value": 1.6, "unit": "µg/mL"},
      {"measurement": "MIC", "setting": "Ps. aeruginosa A9843", "value": 1.6, "unit": "µg/mL"},
      {"measurement": "MIC", "setting": "Ent. cloacae A9656", "value": 0.1, "unit": "µg/mL"},
      {"measurement": "MIC", "setting": "[2]", "value": 3.6, "unit": "µg/mL"},
      {"measurement": "MIC", "setting": "[3]", "value": 0.24, "unit": "µg/mL"},
      {"measurement": "MIC", "setting": "[4]", "value": 0.038, "unit": "µg/mL"},
      {"measurement": "MIC", "setting": "[5]", "value": 0.69, "unit": "µg/mL"},
      {"measurement": "AUC", "setting": "[6]; 10 mg/kg im", "value": 5000, "unit": "ng·h/mL"},
      {"measurement": "half-life", "setting": "[6]; 10 mg/kg im", "value": 15, "unit": "min"},
      {"measurement": "concentration at 10 min", "setting": "[6]; 10 mg/kg im", "value": 12000, "unit": "ng/mL"},
      {"measurement": "concentration at 20 min", "setting": "[6]; 10 mg/kg im", "value": 7400, "unit": "ng/mL"},
      {"measurement": "concentration at 0.5 h", "setting": "[6]; 10 mg/kg im", "value": 4700, "unit": "ng/mL"},
      {"measurement": "concentration at 40 min", "setting": "[6]; 10 mg/kg im", "value": "< 3000", "unit": "ng/mL"},
      {"measurement": "AUC", "setting": "[6]; 20 mg/kg im", "value": 16000, "unit": "ng·h/mL"},
      {"measurement": "half-life", "setting": "[6]; 20 mg/kg im", "value": 14, "unit": "min"},
      {"measurement": "concentration at 10 min", "setting": "[6]; 20 mg/kg im", "value": 33000, "unit": "ng/mL"},
      {"measurement": "concentration at 20 min", "setting": "[6]; 20 mg/kg im", "value": 24000, "unit": "ng/mL"},
      {"measurement": "concentration at 0.5 h", "setting": "[6]; 20 mg/kg im", "value": 18000, "unit": "ng/mL"},
      {"measurement": "concentration at 40 min", "setting": "[6]; 20 mg/kg im", "value": 9400, "unit": "ng/mL"},
      {"measurement": "concentration at 50 min", "setting": "[6]; 20 mg/kg im", "value": 6700, "unit": "ng/mL"},
      {"measurement": "concentration at 1 h", "setting": "[6]; 20 mg/kg im", "value": 3500, "unit": "ng/mL"},
      {"measurement": "concentration at 1.5 h", "setting": "[6]; 20 mg/kg im", "value": "< 3000", "unit": "ng/mL"},
      {"measurement": "AUC", "setting": "[6]; 40 mg/kg im", "value": 25000, "unit": "ng·h/mL"},
      {"measurement": "half-life", "setting": "[6]; 40 mg/kg im", "value": 13, "unit": "min"},
      {"measurement": "concentration at 10 min", "setting": "[6]; 40 mg/kg im", "value": 51000, "unit": "ng/mL"},
      {"measurement": "concentration at 20 min", "setting": "[6]; 40 mg/kg im", "value": 40000, "unit": "ng/mL"},
      {"measurement": "concentration at 0.5 h", "setting": "[6]; 40 mg/kg im", "value": 29000, "unit": "ng/mL"},
      {"measurement": "concentration at 40 min", "setting": "[6]; 40 mg/kg im", "value": 15000, "unit": "ng/mL"},
      {"measurement": "concentration at 50 min", "setting": "[6]; 40 mg/kg im", "value": 9000, "unit": "ng/mL"},
      {"measurement": "concentration at 1 h", "setting": "[6]; 40 mg/kg im", "value": 4600, "unit": "ng/mL"},
      {"measurement": "concentration at 1.5 h", "setting": "[6]; 40 mg/kg im", "value": "< 3000", "unit": "ng/mL"}
    ]}
  ]
}
